From patent US11028051B2, “Tetrahydroquinoline-based bromodomain inhibitors” (St. Jude Children's Research Hospital, priority 2016, dated 2021)
pEC50, pIC50: −log10 of the molar value. Where two headings read alike, the source gives them in different places.

Columns and labels:
BRD3-BD1 = BRD3-BD1 (Homo sapiens (Human), UniProt Q15059); test: competitive TR-FRET assay, BET-BD with acetylated peptide ligand; assay type: binding
Experimental: (§1) Inhibitor potency was determined using a competitive TR-FRET assay as detailed herein, measuring interaction of the respective BET-BD with an acetylated peptide ligand (Table 2).

BRD4-BD2 = BRD4-BD2 (Homo sapiens (Human), UniProt O60885); test: as above; assay type: binding; settings: for pEC50: BRD4-BD2, Table 11 additional modifications, read-out: 4.2 EC50
Experimental: as §1

BRD2-BD1 [1] = target: T1, BRD2-BD1 (Homo sapiens (Human), UniProt P25440); test: as above; assay type: binding; settings: for pEC50: BRD2-BD1, Table 11 additional modifications, read-out: 2.1 EC50; for EC50: Table 4, read-out: EC50 (μM) BRD2(1)
Experimental: as §1
Target sequence in this assay (P25440 74-180): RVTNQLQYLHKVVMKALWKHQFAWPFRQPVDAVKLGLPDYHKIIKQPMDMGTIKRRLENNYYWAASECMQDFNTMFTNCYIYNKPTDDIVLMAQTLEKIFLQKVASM

BRDT = BRDT (Homo sapiens, UniProt Q58F21); test: as above; assay type: binding; settings: read-out: BRDT EC50
Experimental: as §1

BRD2-BD2 = BRD2-BD2 (Homo sapiens (Human), UniProt P25440); test: as above; assay type: binding; settings: for pEC50: BRD2-BD2, Table 11 additional modifications, read-out: 2.2 EC50; for 2.1/2.2: ratio of BRD2-BD1 EC50 to BRD2-BD2 EC50 (selectivity); for [2(1)/2(2)]: Table 4, ratio of EC50; for EC50: Table 4, read-out: EC50 (μM) BRD2(2)
Experimental: as §1

BRD4-BD1 = BRD4-BD1 (Homo sapiens (Human), UniProt O60885); test: as above; assay type: binding; settings: for pEC50: BRD4-BD1, Table 11 additional modifications, read-out: 4.1 EC50
Experimental: as §1

HDMB03 cells = test: cell viability, CellTiter-Glo; assay type: cell-based, human; settings: Homo sapiens, HD-MB03, Table 5; read-out: EC50 (μM) HDMB03
Experimental: Human G3 medulloblastoma or mouse SHH medulloblastoma cells were grown as neurospheres in supplemented neurobasal medium, as previously described (Kawauchi et al., 2012.)
After 7 days of treatment, an equal volume of CellTiter-Glo reagent (G7572, Promega) was added and the luminescence signal was measured using an automated Envision plate reader (Perkin-Elmer). Luminescence data were normalized by log10 transformation prior to calculating the percent inhibition using the following equation:
100*(negative control mean −compound value)/(negative control mean −positive control mean).
High-throughput assay data were analyzed using Robust Interpretation of Screening Experiments (RISE) application written in Pipeline Pilot (Accelrys, v. 8.5) and the R program (R Development Core Team).
Dose-response curves were calculated by regressing the median percent inhibition obtained over triplicate experiments to log 10-transformed concentrations. Non-linear regression was then performed using the R drc package with the four parameter log-logistic function (LL2.4) (Ritz and Streibig, 2009). Curves were fit under three different constraints: (1) all parameters free, (2) high response fixed to 100, (3) low response fixed to 0; and the best fit from these three nested models was selected using the anova.drc function.

[2] = system: c-Myc expression in HDMB03 cells; test: c-Myc expression inhibition, high content microscopy (HCM); assay type: cell-based, human; settings: Homo sapiens; for EC50: HD-MB03, Table 5, read-out: EC50 (μM) Myc-inhibition
Experimental: 3000 human G3 medulloblastoma or 2000 mouse SHH medulloblastoma cells per well were plated into 384-well plates (6007710, Perkin Elmer) in 30 μL of supplemented neurobasal medium using a Wellmate automated dispenser (Thermo Matrix). After 24 hours, 125 nl of compound was transferred via pin tool, resulting in a final drug concentration from 2 nM to 40 μM. 72 hours after adding the drug, the plates were fixed with 4% formaldehyde for 20 min. After fixation the cells were then washed 3 times with 75 μl of PBS. The cells were then permeabilized with 0.1% Triton-X 100 for 15 minutes at 25° C. and blocked using 1% BSA in PBS for 1 hour at 25° C. The primary antibody against c-Myc Ab (#9402, Cell Signaling) at a 1:400 dilution was diluted in 1% BSA in PBS. This mixture was added to each well before incubation overnight at 4° C. Each well was then washed 3 times with PBS using a Biotek ELX405 Select plate washer, and incubated for 1 hour at 25° C. with a solution containing 1/400 goat α-rabbit-Alexa-488 (4412S, Cell Signaling) and 1 μM Hoechst 33342 to detect nuclear material (H3570, Molecular Probes). Two images were captured of each well at 10× using a GE Healthcare InCell 6000 at 405 nM to detect nuclear staining and 488 nM to detect c-Myc. All data were analyzed using the multi-target analysis algorithm of the GE InCell Analyzer Workstation software. The number of nuclear objects in each well, as well as all nuclear measurements, was determined through nuclear masks over the Hoechst staining. C-Myc staining was then measured using top-hat segmentation in the entire cell.

BRD2-BD1 [3] = target: T1, BRD2-BD1; test: isothermal titration calorimetry analysis of binding; settings: ITC, BRD2-BD1
Experimental: b. Isothermal Titration Calorimetry Analysis of Binding to Brd2-BD1 and Brd2-BD2
Binding of compounds to BRD2 was monitored using an ITC200 (Microcal, Piscataway, N.J.). Either Brd2.1 (74-194) or Brd2.2 (348-455) was dialyzed overnight into a solution containing 50 mM HEPES, pH 7.0 and 150 mM NaCl at 15° C. Enzyme concentrations were determined after dialysis by absorbance at 280 nm using a molar extinction coefficient (ε280) of 25,565 M^−1 cm^−1 (2.1) or 16,055 M^−1 cm^−1 (2.2). Enzyme was diluted in dialysis buffer and 39.6 μL was loaded into the syringe. Compounds were dissolved in the same dialysis buffer and loaded in the cell to a volume of 204 μL. Injections were carried out by serial injections of enzyme; first, 1 injection of 1 μL, followed by 19 incremental injections of 2 μL, at 120 second intervals. Data from the first injection was excluded, due to pre-equilibration mixing between the contents of cell and syringe at the syringe tip. Peak areas were integrated, normalized, and then fitted by non-linear regression using the independent sites model in Origin™ (version 2.3.6, Microcal, Piscataway, N.J.).
Target sequence in this assay (P25440 74-194): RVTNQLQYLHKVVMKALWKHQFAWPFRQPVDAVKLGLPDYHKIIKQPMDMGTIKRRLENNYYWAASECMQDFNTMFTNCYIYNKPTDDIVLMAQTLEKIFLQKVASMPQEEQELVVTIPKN

[4] = BRD3-BD1, Table 11 additional modifications, read-out: 3.1 EC50
[5] = BRDT, Table 11 additional modifications
[6] = Table 2, inhibitor potency by TR-FRET

BRD2-BD2, sequence (P25440 344-453): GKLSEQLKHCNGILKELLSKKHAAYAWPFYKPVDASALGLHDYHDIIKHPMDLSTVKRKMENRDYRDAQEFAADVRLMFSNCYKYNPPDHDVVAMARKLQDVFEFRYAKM
BRD3-BD1, sequence (Q15059 34-140): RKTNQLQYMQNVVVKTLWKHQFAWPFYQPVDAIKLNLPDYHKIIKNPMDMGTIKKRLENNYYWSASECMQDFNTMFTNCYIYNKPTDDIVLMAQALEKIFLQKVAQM

Structure (SMILES)	pEC50 (BRD3-BD1; [4])	pEC50 (BRD4-BD2)	pEC50 (BRD2-BD1 [1])	pEC50 (BRDT; [5])	pEC50 (BRD2-BD2)	2.1/2.2 (BRD2-BD2)	pEC50 (BRD4-BD1)	further results
CC(=O)Nc1cccc(-c2ccc3c(c2)[C@H](Nc2ccc4c(c2)COC4=O)C[C@H](C)N3C(C)=O)c1 [compound 12]	6.23	7.40	6.03	5.74	7.52	31	5.82	–
CC(=O)Nc1cccc(-c2ccc3c(c2)[C@H](Nc2ccc4c(c2)OCO4)C[C@H](C)N3C(C)=O)c1 [compound 14]	5.92	7.22	5.74	5.59	7.05	20	5.70	–
COC(=O)c1ccccc1N[C@@H]1C[C@H](C)N(C(C)=O)c2ccc(-c3cccc(NC(C)=O)c3)cc21 [compound 15]	5.00	7.00	5.15	6.15	6.96	64	5.15	–
CC(=O)Nc1cccc(-c2ccc3c(c2)[C@H](Nc2cncnc2)C[C@H](C)N3C(C)=O)c1 [compound 16]	5.19	5.72	5.01	4.77	6.01	10	4.89	–
COc1ccc(N[C@@H]2C[C@H](C)N(C(C)=O)c3ccc(-c4cccc(NC(C)=O)c4)cc32)cc1 [compound 18]	5.82	7.10	5.72	5.59	6.96	4.8	5.64	–
COc1cccc(N[C@@H]2C[C@H](C)N(C(C)=O)c3ccc(-c4cccc(NC(C)=O)c4)cc32)c1 [compound 21]	6.23	7.40	6.03	5.74	7.52	31	5.82	–
CC(=O)Nc1cccc(-c2ccc3c(c2)[C@H](Nc2cccc(OC(F)(F)F)c2)C[C@H](C)N3C(C)=O)c1 [compound 22]	5.00	5.72	4.59	5.00	6.10	33	4.57	–
CNCc1ccc(N[C@@H]2C[C@H](C)N(C(C)=O)c3ccc(-c4cccc(NC(C)=O)c4)cc32)cc1 [compound 23]	6.15	6.49	5.64	5.68	7.00	23	5.82	–
CC(=O)Nc1cccc(-c2ccc3c(c2)[C@H](NC2CCOCC2)C[C@H](C)N3C(C)=O)c1 [compound 36]	5.85	5.27	5.49	5.15	5.52	1.1	5.62	–
CC(=O)Nc1cccc(-c2ccc3c(c2)[C@H](NC2CCCCCC2)C[C@H](C)N3C(C)=O)c1 [compound 37]	5.92	6.27	5.62	5.55	6.21	3.9	5.82	–
CC(=O)Nc1cccc(-c2ccc3c(c2)[C@H](NC2CCCC2)C[C@H](C)N3C(C)=O)c1 [compound 38]	5.43	5.59	5.26	4.96	5.62	2.3	5.17	–
CC(=O)Nc1cccc(-c2ccc3c(c2)[C@H](Nc2ccc(F)cc2)C[C@H](C)N3C(C)=O)c1 [compound 39]	–	–	–	–	–	–	–	EC50 (HDMB03 cells): 1.68 µM; EC50 [2]: 0.04 µM; pEC50 (BRD3-BD1; Table 4, read-out: BRD3(1)): 5.57; 4(1)/4(2) (BRD4-BD2; Table 4, ratio of EC50): 63; EC50 (BRD4-BD2; Table 4, read-out: EC50 (μM) BRD4(2)): 0.09 µM; EC50 (BRD2-BD1 [1]): 5.6 µM; pEC50 (BRDT; Table 4): 5.00; [2(1)/2(2)] (BRD2-BD2): 51; EC50 (BRD2-BD2): 0.11 µM; EC50 (BRD4-BD1; Table 4, read-out: EC50 (μM) BRD4(1)): 5.7 µM
COc1cc(F)ccc1N[C@@H]1C[C@H](C)N(C(C)=O)c2ccc(-c3cccc(NC(C)=O)c3)cc21 [compound 42]	–	–	–	–	–	–	–	EC50 (HDMB03 cells): 0.76 µM; EC50 [2]: > 10 µM; pEC50 (BRD3-BD1; Table 4, read-out: BRD3(1)): < 4.85; EC50 (BRD2-BD1 [1]): 13 µM; pEC50 (BRDT; Table 4): < 4.85; [2(1)/2(2)] (BRD2-BD2): >100; EC50 (BRD2-BD2): 0.14 µM
CC(=O)N1c2ccc(-c3ccco3)cc2[C@H](NC(=O)OC(C)C)C[C@@H]1C [compound 50]	–	–	–	–	–	–	–	pEC50 ([2]; HD-MB03, HDMB03 cells, read-out: c-Myc expression EC50): 6.48; pIC50 (BRD4-BD2; [6]): 5.59; pIC50 (BRD4-BD1; [6]): 5.34; ΔG (BRD2-BD1 [3]): -7.47 kcal/mol; −TΔS (BRD2-BD1 [3]): -0.20 kcal/mol
CC(=O)N1c2ccc(-c3coc4ccccc34)cc2[C@H](NC(=O)OC(C)C)C[C@@H]1C [compound 90]	5.47	4.25	4.96	4.85	5.46	0.84	5.06	–
CC(=O)N1c2ccc(-c3c[nH]c4ccccc34)cc2[C@H](NC(=O)OC(C)C)C[C@@H]1C [compound 91]	5.96	4.43	5.89	5.31	5.96	0.032	6.07	–
CC(=O)N1c2ccc(-c3cc4ccccc4[nH]3)cc2[C@H](NC(=O)OC(C)C)C[C@@H]1C [compound 92]	6.39	5.89	5.77	5.52	5.85	5.1	5.89	–
CC(=O)Nc1cccc(-c2ccc3c(c2)[C@H](Nc2ccc(N(C)C)cc2)C[C@H](C)N3C(C)=O)c1 [compound 118]	5.68	6.68	5.44	5.80	6.96	10	5.29	–
CC(=O)Nc1cccc(-c2ccc3c(c2)[C@H](Nc2ccc([N+](=O)[O-])cc2)C[C@H](C)N3C(C)=O)c1 [compound 127]	5.92	7.22	5.64	5.39	6.96	17	5.54	–
CC(=O)Nc1cccc(-c2ccc3c(c2)[C@H](Nc2ccc(OC(F)(F)F)cc2)C[C@H](C)N3C(C)=O)c1 [compound 132]	5.00	6.27	4.70	5.00	6.43	16	4.77	–
CC(=O)N1c2ccc(-c3cccc(NC(=O)OC(C)(C)C)c3)cc2[C@H](Nc2ccc(Cl)cc2)C[C@@H]1C [compound 134]	5.00	6.05	4.68	5.00	6.23	36	4.68	–
